The text below walks through data of US20250194594A1, “ATTRACTANT COTTON SEED BUG, OXYCARENUS Hyalinipennis, AND USES THEREOF” (The United States of America, as represented by the …, priority 2023, published 2025).

Molecules are shown by their SMILES. Entries after “also recorded” stand apart in the source; their conditions may differ.

Data set [1] deals with cotton seed bugs (CSBs). The experiment in a line: Pheromone function assigned from the behavioral responses and VOC profiles. Conditions: summary statement; compounds not tested singly in the bioassays. In kind it is in vivo, Oxycarenus hyalinipennis.
Data set [2] has as its system cotton seed bug (CSB), Oxycarenus hyalinipennis. As to the kind of experiment: Field test, attractants formulated in rubber septa in a cotton field with low CSB population. The format is in vivo. To be noted: cotton field where CSB population was low, vs control (no treatment), listed as 4-oxo-E2-8: ald. The source says: (§1) The mean number of O. hyalinippenis in different treatment traps (captures/week) in field trials were compared by one-way analysis of variance (ANOVA) followed by Ryan-Einot-Gabriel-Welsch F test (SPSS 10.0 for Windows) following D George and P Mallery (2002, “SPSS for Windows Step by Step: A Simple Guide and Reference,” 11.0 Update. 4th Edition, Allyn & Bacon; Boston, Massachusetts, USA). All statistical comparisons were considered for significance at α=0.05.
(§2) Different pheromones or mixtures of pheromones were tested for their ability to attract CSB in the field.
In a separate field test, a mixture of E2-octenal, 4-oxo-E2-octenal, and E2-octenyl acetate in a ratio of 1:2:7, as well as the single attractant component, 4-oxo-E2-8: ald, were tested. The compounds were formulated in rubber septa in a cotton field where the population of CSB was low. CSB formed the majority of insects caught in the traps. Trap specificity was much higher than in the test described above.

For data set [3] the following is noted: cited from earlier work.
For data set [4], the system named is cotton seed bug (CSB), Oxycarenus hyalinipennis. The experiment in a line: Field test, pheromones in plastic vials in a cotton field with high CSB population. The format is in vivo. To be noted: counted after 1 hour, compared among treatment groups including control (no treatment).
Source text: as §1, §2
Field tests were conducted by adding one or more of the identified pheromones to plastic vials and placing the vials in a cotton field with high CSB population, followed by counting the CSB caught after one (1) hour.
A field test was conducted using E2-octenal, E2-octenyl acetate, and a mixture of E2-octenal and E2-octenyl acetate. The compounds were placed in plastic vials in a cotton field with a high population of CSB. Many other bugs were also captured in the traps (numbers were not included).

For data set [5] the following is noted: cited from earlier work. The source holds these as a separate data set.

For `CCCCCCC/C=C/C=O` (single isomer, unassigned) [(E)-2-Decenal], in data set [1], the pheromone function result is listed as “performed as oviposition pheromones”. With `CCC(=O)/C=C/C=O` [4-Oxo-(E)-2-hexenal], the pheromone function entry in data set [1] is on record as “performed as CSB attraction pheromones”. On to `CCCCC(=O)/C=C/C=O` [4-Oxo-(E)-2-octenal], for which the “CSB trapped compared with control” value in data set [2] is “trapped significantly more CSB than control; also recorded: attract CSB”. Regarding `CCC/C=C/C=O` [(E)-2-Hexenal], the pheromone function entry in data set [1] is recorded as “performed as CSB attraction pheromones”.

`CCC/C=C/COC(C)=O` [(E)-2-Hexenyl acetate, (E)-2-hexen-1-yl acetate]: in data set [1], the pheromone function entry is “performed as CSB attraction pheromones”. As for `CCCCC/C=C/C=O` [(E)-2-Octenal], in data set [3], the “basicity (based on its pKa)” value is given as “extremely weak basic (essentially neutral)”. Moreover, the pheromone function result in data set [1] is given as “performed as CSB attraction pheromones; also recorded: performed as oviposition pheromones”. For the same compound, in data set [4], the “number of CSB caught in the traps” value is “not significantly different”. The “solubility (in water)” value in data set [5] is “practically insoluble”.

`CCCCC/C=C/COC(C)=O` [(E)-2-Octenyl acetate]: the pheromone function result in data set [1] is on record as “performed as CSB attraction pheromones; also recorded: performed as oviposition pheromones”. Also, the “number of CSB caught in the traps” value in data set [4] is given as “not significantly different”.

`CC(C)=CCC[C@]1(C)[C@H]2CC=C(C)[C@@H]1C2` [(E)-α-Bergamotene]: the pheromone function result in data set [1] is “performed as alarm (repellent) pheromones”. `C=C/C(C)=C/C/C=C(/C)CCC=C(C)C` [(Z, E)-α-Farnesene]: the pheromone function result in data set [1] is “performed as alarm (repellent) pheromones”. As for `CC1=CCC2CC1C2(C)C` (stereo not drawn) [α-Pinene, 2,6,6-Trimethylbicyclo[3.1.1]hept-2-ene], in data set [1], the pheromone function result is on record as “performed as CSB attraction pheromones”.
